Measured values: patent US20170216355A1, “Methods and Compositions for Enhancing T Cell Function and Survival” (Augusta University Research Institute, Inc., priority 2016, published 2017)
“Also recorded” adds a separate entry of the source.

Experiments:
[1] = system: CD8 T cells from pMel-1 mice; assay: Phenotyping of gp100-activated CD8 T cells (CD62L/CD44 flow cytometry); format: cell-based, mouse; conditions: for phenotype of CD8 T cells (TCM vs TEM) compared to non-treated cells: after 3 days of stimulation with 1 μM gp100 25-33 (7 days culture); for CD62L expression level: day 3, and day 7 after each stimulation with gp100
Description: CD8 T cells from pMel-1 mice were activated in vitro as previously described^5. Briefly, homogenized pMel-1 splenocytes were stimulated with gp10025-33 peptide at a 1 μM concentration (day 0). Cells were cultured in RPMI 1640 (Lonza) supplemented with 10% FBS, penicillin (100 U/mL), streptomycin ([…]), 0.1% β-mercaptoethanol (Life Technologies, Invitrogen) and IL-2 (100 U/ml) (Peprotech) at 37° C. with 5% CO2. pMel-1 cells were cultured with or without the different PI3K inhibitors. The concentration of the inhibitors was maintained throughout the culture by changing the media every 48-72 hours.
On Days 7, 14 and 21, cells were re-stimulated with gp10025-33 peptide at a 1 μM concentration using feeder cells (irradiated WT splenocytes, 4000 Rads) at 1:1 ratio using the same culture conditions.
Cells were labeled with 5 μM Violet Cell Trace (VCT) proliferation dye (Life Technologies, Invitrogen) prior to their stimulation (day 0) following the manufacturers' instructions. The proliferation of CD8 T cells was assessed via VCT dye dilution (day 3) using an LSRII SORP with HTS Flow Cytometer (BD Biosciences). The data were analyzed using FlowJo 10 (Tree Star). The cultured cells were harvested on days 3, 7, 14 and 21 to assess their phenotype. Cells were stained with the following surface marker antibodies (BD Biosciences): APC-Cy7 labeled anti-CD8, FITC labeled anti-Vβ13, PE labeled anti-CD62L, APC labeled anti-CD44, PE-CF594 labeled anti-CD127, APC labeled anti-KLRG-1 in addition to the viability stain 7AAD. All the analyses were performed on viable (7AAD−), Vβ13+CD8+ T cells.

[2] = system: CD8 T cells from pMel-1 mice; assay: Proliferation assay (VCT dye dilution) and fold expansion of CD8 T cells; format: cell-based, mouse
Description: CD8 T cells from pMel-1 mice were activated in vitro as previously described^5. […] The concentration of the inhibitors was maintained throughout the culture by changing the media every 48-72 hours. […] The data were analyzed using FlowJo 10 (Tree Star). […] Cells were stained with the following surface marker antibodies (BD Biosciences): APC-Cy7 labeled anti-CD8, FITC labeled anti-Vβ13, PE labeled anti-CD62L, APC labeled anti-CD44, PE-CF594 labeled anti-CD127, APC labeled anti-KLRG-1 in addition to the viability stain 7AAD. All the analyses were performed on viable (7AAD−), Vβ13+CD8+ T cells.

[3] = system: CD8 T cells from pMel-1 mice; assay: Cytometric Bead Array of IL-2, TNF and IFN-γ secretion; format: cell-based, mouse
p110α = p110α (Homo sapiens, UniProt P42336); conditions: cited from earlier work
p110δ = p110δ (Homo sapiens, UniProt O00329); conditions: cited from earlier work
p110γ = p110γ (Homo sapiens, UniProt P48736); conditions: cited from earlier work
p110γ, sequence (P48736 whole entry, species assumed): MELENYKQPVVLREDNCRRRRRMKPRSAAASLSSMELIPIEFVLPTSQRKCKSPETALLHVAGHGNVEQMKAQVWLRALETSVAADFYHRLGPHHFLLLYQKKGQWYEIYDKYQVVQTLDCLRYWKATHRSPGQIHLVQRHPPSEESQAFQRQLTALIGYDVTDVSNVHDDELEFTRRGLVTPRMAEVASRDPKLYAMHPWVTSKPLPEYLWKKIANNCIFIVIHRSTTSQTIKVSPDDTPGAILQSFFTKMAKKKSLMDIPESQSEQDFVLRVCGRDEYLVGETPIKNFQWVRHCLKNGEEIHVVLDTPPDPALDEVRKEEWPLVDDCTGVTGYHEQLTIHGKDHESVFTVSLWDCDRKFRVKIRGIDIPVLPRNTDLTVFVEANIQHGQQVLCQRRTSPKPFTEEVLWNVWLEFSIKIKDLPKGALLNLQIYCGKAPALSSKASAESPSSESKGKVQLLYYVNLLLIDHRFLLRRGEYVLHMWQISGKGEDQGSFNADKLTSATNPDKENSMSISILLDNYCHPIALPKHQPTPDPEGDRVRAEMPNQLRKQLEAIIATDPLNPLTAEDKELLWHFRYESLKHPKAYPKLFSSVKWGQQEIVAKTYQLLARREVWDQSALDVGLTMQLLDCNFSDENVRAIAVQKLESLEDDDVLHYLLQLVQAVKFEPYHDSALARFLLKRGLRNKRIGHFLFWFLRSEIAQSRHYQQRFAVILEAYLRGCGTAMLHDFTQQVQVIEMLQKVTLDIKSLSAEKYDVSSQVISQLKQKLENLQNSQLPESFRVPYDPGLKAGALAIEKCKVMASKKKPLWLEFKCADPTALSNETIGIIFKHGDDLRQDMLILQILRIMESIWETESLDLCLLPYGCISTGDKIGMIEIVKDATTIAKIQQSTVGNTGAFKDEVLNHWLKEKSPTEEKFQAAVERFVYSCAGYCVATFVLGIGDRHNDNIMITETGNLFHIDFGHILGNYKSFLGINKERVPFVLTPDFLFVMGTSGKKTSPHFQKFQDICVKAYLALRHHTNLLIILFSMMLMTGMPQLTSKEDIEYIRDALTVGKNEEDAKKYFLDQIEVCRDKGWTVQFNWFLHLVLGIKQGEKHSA

p110α, sequence (P42336 whole entry, species assumed): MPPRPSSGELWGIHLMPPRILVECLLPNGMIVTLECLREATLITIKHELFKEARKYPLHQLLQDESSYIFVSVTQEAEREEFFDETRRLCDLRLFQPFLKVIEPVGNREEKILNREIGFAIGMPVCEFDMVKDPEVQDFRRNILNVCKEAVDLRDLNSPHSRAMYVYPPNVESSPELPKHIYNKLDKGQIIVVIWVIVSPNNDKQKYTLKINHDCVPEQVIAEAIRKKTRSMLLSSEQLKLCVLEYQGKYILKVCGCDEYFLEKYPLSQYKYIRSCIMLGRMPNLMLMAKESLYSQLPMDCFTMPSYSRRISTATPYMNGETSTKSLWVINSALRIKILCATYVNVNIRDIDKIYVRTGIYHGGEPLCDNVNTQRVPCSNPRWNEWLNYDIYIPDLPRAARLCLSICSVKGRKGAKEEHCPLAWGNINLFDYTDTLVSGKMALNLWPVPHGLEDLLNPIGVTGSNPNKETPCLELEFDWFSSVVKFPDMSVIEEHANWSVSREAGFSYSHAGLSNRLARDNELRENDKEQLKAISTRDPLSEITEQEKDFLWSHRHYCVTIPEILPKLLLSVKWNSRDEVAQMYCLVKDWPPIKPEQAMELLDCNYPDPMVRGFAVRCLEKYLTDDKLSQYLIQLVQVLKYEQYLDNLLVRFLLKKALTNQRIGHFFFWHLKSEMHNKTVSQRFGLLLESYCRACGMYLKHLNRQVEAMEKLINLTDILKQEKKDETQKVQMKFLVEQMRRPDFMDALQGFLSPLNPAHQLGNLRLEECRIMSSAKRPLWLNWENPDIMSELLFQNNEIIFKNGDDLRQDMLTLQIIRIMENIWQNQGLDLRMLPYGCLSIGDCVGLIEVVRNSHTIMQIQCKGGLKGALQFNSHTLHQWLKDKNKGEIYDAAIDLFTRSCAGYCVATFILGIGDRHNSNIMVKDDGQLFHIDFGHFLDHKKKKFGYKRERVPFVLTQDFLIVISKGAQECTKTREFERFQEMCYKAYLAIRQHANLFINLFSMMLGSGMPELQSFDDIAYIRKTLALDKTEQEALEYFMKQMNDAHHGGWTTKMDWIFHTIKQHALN
p110δ, sequence (O00329 whole entry, species assumed): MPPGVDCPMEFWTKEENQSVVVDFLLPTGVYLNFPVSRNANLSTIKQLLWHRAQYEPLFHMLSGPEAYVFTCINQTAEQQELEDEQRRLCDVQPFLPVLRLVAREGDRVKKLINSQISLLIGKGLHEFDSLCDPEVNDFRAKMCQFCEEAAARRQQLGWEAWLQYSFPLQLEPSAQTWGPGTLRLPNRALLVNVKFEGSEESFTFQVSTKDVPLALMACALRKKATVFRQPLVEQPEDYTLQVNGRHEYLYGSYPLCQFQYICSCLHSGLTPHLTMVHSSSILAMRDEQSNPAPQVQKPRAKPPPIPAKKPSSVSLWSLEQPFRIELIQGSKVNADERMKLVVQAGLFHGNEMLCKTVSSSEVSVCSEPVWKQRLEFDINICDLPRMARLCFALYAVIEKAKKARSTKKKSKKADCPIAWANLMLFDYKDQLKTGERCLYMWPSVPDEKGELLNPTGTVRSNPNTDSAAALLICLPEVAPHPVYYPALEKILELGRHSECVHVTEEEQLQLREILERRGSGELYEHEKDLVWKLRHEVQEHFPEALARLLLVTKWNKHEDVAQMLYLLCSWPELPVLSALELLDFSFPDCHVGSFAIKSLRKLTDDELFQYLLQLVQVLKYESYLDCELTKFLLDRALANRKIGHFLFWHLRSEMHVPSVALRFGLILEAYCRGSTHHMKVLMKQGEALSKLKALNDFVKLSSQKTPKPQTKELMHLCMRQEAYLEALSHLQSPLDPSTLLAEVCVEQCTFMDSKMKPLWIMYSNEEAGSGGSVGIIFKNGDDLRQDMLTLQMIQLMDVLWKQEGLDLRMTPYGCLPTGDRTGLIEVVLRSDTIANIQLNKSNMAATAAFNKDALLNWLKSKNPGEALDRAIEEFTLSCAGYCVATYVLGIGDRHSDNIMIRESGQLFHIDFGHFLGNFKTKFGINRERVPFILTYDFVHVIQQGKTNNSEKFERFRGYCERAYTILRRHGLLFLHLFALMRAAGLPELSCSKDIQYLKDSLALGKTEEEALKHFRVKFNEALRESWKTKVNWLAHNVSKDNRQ
p110δ, sequence (P27986 whole entry partner, species assumed): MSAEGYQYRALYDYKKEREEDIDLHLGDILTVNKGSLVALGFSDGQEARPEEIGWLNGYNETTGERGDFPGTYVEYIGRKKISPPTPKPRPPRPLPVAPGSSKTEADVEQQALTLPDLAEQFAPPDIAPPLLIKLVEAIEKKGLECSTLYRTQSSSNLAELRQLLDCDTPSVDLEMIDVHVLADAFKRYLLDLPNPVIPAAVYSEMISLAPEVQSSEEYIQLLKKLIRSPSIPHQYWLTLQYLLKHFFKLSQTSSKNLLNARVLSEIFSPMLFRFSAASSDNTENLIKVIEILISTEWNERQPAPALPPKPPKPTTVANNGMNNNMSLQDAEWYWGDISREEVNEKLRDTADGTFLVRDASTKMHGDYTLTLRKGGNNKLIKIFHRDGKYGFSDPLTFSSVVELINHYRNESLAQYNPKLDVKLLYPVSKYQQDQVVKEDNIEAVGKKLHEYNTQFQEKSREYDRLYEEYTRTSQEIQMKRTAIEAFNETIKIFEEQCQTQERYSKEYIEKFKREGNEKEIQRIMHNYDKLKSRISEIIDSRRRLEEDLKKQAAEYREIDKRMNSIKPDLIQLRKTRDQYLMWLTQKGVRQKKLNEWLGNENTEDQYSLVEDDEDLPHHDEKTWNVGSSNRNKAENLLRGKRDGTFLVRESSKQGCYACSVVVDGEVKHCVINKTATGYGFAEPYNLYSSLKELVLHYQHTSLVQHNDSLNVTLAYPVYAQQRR

## Cc1nc(NC(=O)N2CCC[C@H]2C(N)=O)sc1-c1csc(C(C)(C)C)n1 [A66]
[1]
  phenotype of CD8 T cells (TCM vs TEM) compared to non-treated cells: no differences in the phenotype

## CC[C@H](Nc1ncnc2[nH]cnc12)c1nc2cccc(F)c2c(=O)n1-c1ccccc1 [CAL-101]
[1]; D3, stim1, representative example, non-treated 4%
  percentage of TCM: 32%
[1]; D7, Stim 3, representative example, non-treated 36%
  percentage of terminally differentiated T-cells: 5%
[1]; D7, Stim3, representative example, non-treated 64%
  percentage of TEM cells (CD62LloCD44hi): 95%

## CS(=O)(=O)N1CCN(Cc2cc3nc(-c4cccc5[nH]ncc45)nc(N4CCOCC4)c3s2)CC1 [GDC-0941]
[2]; highest dose tested (279 nM)
  toxicity to CD8 T cells: toxic
[2]; with further stimulations (days 7 and 14), vs non-treated cells
  expansion of CD8 T cells: expand at a significantly high rate
[1]; GDC at the highest concentration, non-treated cells 96% TEM
  percentage of TCM phenotype (CD62LhiCD44hi): 37%
[1]; GDC treatment, after the third stimulation, non-treated 64%
  percentage of TEM: 93%
[1]; GDC treatment, after the third stimulation, non-treated less than 0.01
  percentage of TCM: 3.5%
[1]; listed as GDC
  phenotype of CD8 T cells (TCM vs TEM) compared to non-treated cells: high percentage of the TCM phenotype; also recorded: high percentage of TCM cells
  CD62L expression level: maintained high expression levels of CD62L
[1]; after the second and third stimulations
  phenotype of CD8 T cells (TEM, terminally differentiated) compared to non-treated or other inhibitors: higher percentage of TEM
[1]; after the third stimulation, highest GDC concentration, non-treated 36%
  percentage of terminally differentiated T-cells (CD62LloCD44lo): 4%
[1]
  CD62L expression level: maintains a high level of CD62L expression
[3]; GDC-0941, A66 (288 nM), TGX-221 (45 nM), CAL-101 (202.5 nM), re-stimulated days 7 and 14, supernatant after 24 hours
  ability of CD8 T cells to produce IFNγ and TNF: not affected
[3]; after re-stimulation (stimulation 3), normalized to GP100, GDC 99 nM, CAL-101 202.5 nM, listed as GDC
  IL-2 secretion: significantly higher levels of IL-2; also recorded: maintained a significantly high level of IL-2 secretion

## Cc1cc(C(C)Nc2ccccc2)c2nc(N3CCOCC3)cc(=O)n2c1 (centres unmarked) [TGX-221]
p110α
  IC50: 5 µM
[1]
  phenotype of CD8 T cells (TCM vs TEM) compared to non-treated cells: no differences in the phenotype
p110δ
  IC50: 0.1 µM
p110γ
  IC50: > 10 µM
